Results taken from the supplement of paper PMC10307832.

What was measured:
Assay in all cases: relative viability (nuclei count vs DMSO), 5 days (fraction); higher = more cells survive
[1] = compound: CC1=NN=C(O1)C2=NN=C(C=C2)N3CCC(CC3)OC4=C(C=CC(=C4)F)Cl + NC(=O)Nc1cc(-c2cccc(F)c2)sc1C(=O)N[C@H]1CCCNC1 [AZD7762] (partner 0.2 µM)
How it was run: (§1)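 After 5 days of treatment, lung cancer cells in 1536-well plates were fixed and stained in a single step (final 0.05% Triton X-100, 1% formaldehyde, 1 ug/ml Hoechst) and their nuclei counted on 4× images. Treatment had been applied by pin tool the day after seeding as one drug alone or as a fixed anchor-drug dose with five library-drug doses (not always all listed) in √10 steps. Relative viability is the nuclei count of treated wells divided by that of vehicle wells, and values are medians of duplicate plates.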

Tosedostat + Foretinib = compound: CC(C)C[C@@H](C(=O)N[C@H](C(=O)OC1CCCC1)c1ccccc1)[C@H](O)C(=O)NO [Tosedostat] + COc1cc2c(Oc3ccc(NC(=O)C4(C(=O)Nc5ccc(F)cc5)CC4)cc3F)ccnc2cc1OCCCN1CCOCC1 [Foretinib] (partner 0.25 µM)
How it was run: as §1

[2] = compound: CC1=NN=C(O1)C2=NN=C(C=C2)N3CCC(CC3)OC4=C(C=CC(=C4)F)Cl + COc1cccc2cc(-c3nc([C@H]4CC[C@H](C(=O)O)CC4)n4ncnc(N)c34)[nH]c12 [OSI-027] (partner 0.5 µM)
How it was run: as §1

Tosedostat + Lapatinib = compound: CC(C)C[C@@H](C(=O)N[C@H](C(=O)OC1CCCC1)c1ccccc1)[C@H](O)C(=O)NO [Tosedostat] + CS(=O)(=O)CCNCc1ccc(-c2ccc3ncnc(Nc4ccc(OCc5cccc(F)c5)c(Cl)c4)c3c2)o1 [Lapatinib] (partner 2 µM)
How it was run: as §1

Cell Line | relative viability ([1]; first compound 0.253 µM) | relative viability ([1]; first compound 2.53 µM) | relative viability ([1]; first compound 8 µM) | relative viability (Tosedostat + Foretinib; first compound 0.02 µM) | relative viability (Tosedostat + Foretinib; first compound 0.06325 µM) | relative viability (Tosedostat + Foretinib; first compound 0.2 µM) | relative viability (Tosedostat + Foretinib; first compound 0.6325 µM) | relative viability (Tosedostat + Foretinib; first compound 2 µM) | relative viability ([2]; first compound 0.253 µM) | relative viability ([2]; first compound 0.8 µM) | relative viability ([2]; first compound 2.53 µM) | relative viability ([2]; first compound 8 µM) | relative viability (Tosedostat + Lapatinib; first compound 0.02 µM) | relative viability (Tosedostat + Lapatinib; first compound 0.6325 µM) | relative viability (Tosedostat + Lapatinib; first compound 2 µM) | relative viability ([1]; first compound 0.8 µM) | relative viability (Tosedostat + Lapatinib; first compound 0.06325 µM) | relative viability (Tosedostat + Lapatinib; first compound 0.2 µM)
LCLC-97TM1 | 0.264 | 0.235 | 0.205 | 0.878 | 0.926 | 0.833 | 0.771 | 0.773 | 0.523 | 0.391 | 0.472 | 0.508 | 0.951 | 0.641 | 0.766 |  |  | 
LK-2 | 0.622 | 0.308 | 0.294 | 1.1 | 0.926 | 1.02 | 1.11 | 1.68 | 0.265 | 0.23 | 0.311 | 0.234 | 0.958 | 0.995 | 1.2 | 0.366 | 0.971 | 0.892
LOU-NH91 |  | 0.816 | 0.717 | 0.981 | 0.955 | 0.882 | 0.887 | 0.871 | 0.693 | 0.645 | 0.706 | 0.69 | 0.8 | 0.868 | 0.778 | 0.715 | 0.88 | 0.875
LU99A | 0.349 | 0.57 | 0.385 | 0.894 | 0.729 | 0.758 | 0.708 | 0.674 | 0.274 | 0.298 | 0.307 | 0.287 | 1.02 | 0.813 | 0.869 | 0.341 | 1.08 | 0.76
LXF-289 | 0.898 | 1.12 | 0.967 | 0.981 | 1 | 1.04 | 0.943 | 0.962 | 0.76 | 0.548 | 0.741 | 0.687 | 0.967 | 0.868 | 0.92 | 0.757 | 0.883 | 0.935
NCI-H23 | 0.191 | 0.288 | 0.206 | 1.01 | 0.889 | 0.919 | 0.827 | 0.69 | 0.49 |  | 0.547 | 0.627 | 1.23 | 1 | 0.628 | 0.192 | 1.06 | 0.958
NCI-H322M | 0.51 | 0.581 | 0.543 | 0.995 | 0.899 | 0.93 | 0.904 | 0.857 | 0.513 | 0.492 | 0.636 | 0.516 | 0.665 | 0.55 | 0.446 | 0.563 | 0.577 | 0.542
NCI-H358 | 0.559 | 0.614 | 0.544 | 0.872 | 0.634 | 0.473 | 0.289 | 0.347 | 0.635 | 0.461 | 0.561 | 0.514 | 0.514 | 0.407 | 0.456 | 0.521 | 0.454 | 0.374
NCI-H460 | 0.215 | 0.26 | 0.23 | 1.05 | 1 | 0.968 | 0.977 | 1 | 0.319 | 0.302 | 0.137 | 0.0418 | 1.13 | 0.921 | 0.999 | 0.189 | 0.915 | 1.07
